# Source: patent publication US20160296591A1, “COMPOSITIONS AND METHODS FOR TREATMENT OF BDNF-RELATED CONDITIONS” (TARIX PHARMACEUTICALS LTD., priority 2013, published 2016)
# How the values were obtained:
# Assay type in all cases: cell-based, human
# [1] = system: BDNF; assay: BDNF production in HUVEC, serum-free medium (BDNF Emax immunoassay); conditions: for lowest dose able to stimulate significant BDNF expression: serum-free medium, 24 hours stimulation, dose response 1×10^−14M to 1×10^−6M
# Experimental: (§1) Prior to stimulation, cells were washed twice with sterile PBS and then provided with the respective serum free cell medium. Cells were incubated in the serum-free medium for one hour and afterwards stimulated for 24 hours. For the dose response measurement the peptides were used in a range from 1×10^−14M to 1×10^−6M. For all other experiments, a 1×10^−7M concentration of the peptides was used, whereas isoproterenol and forskolin were used in a 10^−6M concentration. To maintain the concentration of the substances over a period of 24 hours they were added again into the medium after 12 hours. After stimulation, the concentration of BDNF was determined in the cell medium. The samples were either used directly or stored at −80° C.
# (§2) For the determination of the concentration of BDNF the BDNF Emax® immunoassay system from Promega was used. At first, 96-well plates were coated with anti-BDNF overnight at 4° C. The next day, the plates were washed with TBST and incubated with blocking buffer for one hour at room temperature. Afterwards, the plate was washed again with TBST, and 100 μl of sample were applied per well. The plate was incubated on a shaker (˜400 rpm) for two hours at room temperature and later on washed five times with TBST. To each well 100 μl pAb anti-human BDNF were added, and the plate again incubated under continuous shaking for two hours at room temperature. Thereafter, the plate was washed five times with TBST, each well applied with 100 μl anti-IgY-HRP conjugate, and incubated at room temperature with shaking for one hour. Then, the plate was washed five times with TBST and incubated for 10 min at room temperature on a shaker with TMB One Solution. The reaction was stopped with 1 M hydrochloric acid and the absorbance was measured immediately at 450 nm. The BDNF concentration was determined from a standard curve.
# [2] = system: BDNF; assay: BDNF production in HDMEC, serum-free medium (BDNF Emax immunoassay); conditions: for lowest dose able to stimulate significant BDNF expression: serum-free medium, 24 hours stimulation, dose response 1×10^−14M to 1×10^−6M
# Experimental: as §1, §2
# [3] = system: BDNF; assay: BDNF production in HUVEC in complete (serum-containing) medium; conditions: peptide 1×10^−7M, 24 hours
# Experimental: as §1, with “[…] […]” for “Prior to stimulation, cells were washed twice with sterile PBS and then provided with the respective serum free cell medium. Cells were incubated in the serum-free medium for one hour and afterwards stimulated for 24 hours.”
# as §2, with “Thereafter, the plate was washed five times with TBST, each well applied with 100 μl anti-IgY-HRP conjugate, and incubated at room temperature with shaking for one hour. Then, the plate was washed five times with TBST and incubated for 10 min at room temperature on a shaker with TMB One Solution.” left out, “curve. […]” for “curve.”
# [4] = system: cAMP; assay: cAMP production in HUVEC (cAMP enzyme immunoassay); conditions: 15 minutes of stimulation
# Experimental: Prior to stimulation with Ala^1-Arg^2-Val^3-Ser^4-Ile^5-His^6-Cys^7 (SEQ ID NO: 24), HUVEC cells were washed twice with PBS and then incubated for 1 hour in serum-free medium. In this Example, in order to generate a dose response curve, the peptide concentration ranged from 1×10^−13-1×10^−6 M. After 15 minutes of stimulation, the medium containing the peptide was removed and the cells were lysed (0.1M HCl, 0.1% Triton X-100). The clear lysate was collected, and 25 μl were used for determining the protein concentration (Pierce BCA Protein Assay Kit, Thermo Scientific, Rockford, USA) and the remaining fraction stored at −80° C. for later analysis.
# cAMP concentration in cell lysates was determined using cAMP Enzyme Immunoassay Kit, Direct from Sigma-Aldrich (St. Louis, Mo., USA). Briefly, wells of 96-well plate (Goat Anti-Rabbit IgG pre-coated) were neutralized with 50 μl of Neutralizing Reagent. Next, 100 μl of acetylated cyclic AMP standard or cell lysate was added, followed by 50 μl of blue cAMP-Alkaline Phosphatase Conjugate and 50 μl of yellow EIA Rabbit Anti-cAMP antibody. The plate was then incubated on a shaker (˜500 rpm) for two hours at room temperature. […] The enzymatic reaction was stopped by adding 50 μl of Stop Solution, and the absorbance at 405 nm was measured immediately. The cAMP concentration was determined from non-linear standard curve using GraphPad Prism 5.0 software. […]
dose of the observed maximum of cAMP [4],lowest dose giving a significant increase in cAMP ([4]; dose response 1×10^−13-1×10^−6 M) [pM],Compound,"BDNF expression at doses 100,000 times higher than 1×10^−11 compared with 1×10^−11 M [1]",lowest dose able to stimulate significant BDNF expression [1] [pM],"BDNF expression at doses 100,000 times higher than 1×10^−11 compared with 1×10^−11 M [2]",lowest dose able to stimulate significant BDNF expression [2] [pM],BDNF stimulation compared to control [3]
–,–,"TXA301: angiotensin (1-7) peptide tested; not defined in the text, possibly linear SEQ ID NO: 6 (DRVSIHC)",statistically similar levels of expression,10,statistically similar levels of expression,10,–
–,–,"Asp^1-Arg^2-Val^3-Tyr^4-Ile^5-His^6-Pro^7 (DRVYIHP) [Ang (1-7), naturally-occurring Angiotensin (1-7), seven amino acid peptide]",–,10000,–,10000,–
–,–,CCC(C)C1NC(=O)C(NC(=O)C(NC(=O)C(CCCNC(=N)N)NC(=O)C(N)CC(=O)O)C(C)C)CSCC(C(=O)O)NC(=O)C(Cc2c[nH]cn2)NC1=O (centres unmarked) [Pancyte],–,10,–,10,still able to stimulate BDNF above control levels
approximately 1×10^−9 M,10,Ala^1-Arg^2-Val^3-Ser^4-Ile^5-His^6-Cys^7 (ARVSIHC) [SEQ ID NO:24],–,–,–,–,–
